Values joined by “and” are separate entries in the source; they are usually repeats but may differ in a detail not shown here. Equal values may be shown once.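 Step 1: Grow cells in 96-well plates. Step 2: Expose to compound for 48 hours at 5 concentrations. Step 3: Interpolate endpoints linearly; if unreached, use highest concentration. At the GI50, growth is halved. TGI marks complete inhibition of growth.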
Key:
Assay in all cases: NCI tumour cell line growth inhibition, 48 h
[1] = test system: 786-0 renal
[2] = test system: A498 renal
[3] = test system: A549 NSCLC
[4] = test system: CAKI-1 renal
[5] = test system: CCRF-CEM leukemia
[6] = test system: COLO 205 colon
[7] = test system: DU-145 prostate
[8] = test system: EKVX NSCLC
[9] = test system: HCT-116 colon
[10] = test system: HL-60(TB) leukemia
[11] = test system: HOP-62 NSCLC
[12] = test system: HOP-92 NSCLC
[13] = test system: HS 578T breast
[14] = test system: HT29 colon
[15] = test system: IGROV1 ovarian
[16] = test system: K-562 leukemia
[17] = test system: KM12 colon
[18] = test system: LOX IMVI melanoma
[19] = test system: M14 melanoma
[20] = test system: MALME-3M melanoma
[21] = test system: MCF7 breast
[22] = test system: MDA-MB-231 breast
[23] = test system: MDA-MB-435
[24] = test system: MDA-N
[25] = test system: MOLT-4 leukemia
[26] = test system: NCI-H226 lung
[27] = test system: NCI-H23 lung
[28] = test system: NCI-H460 lung
[29] = test system: NCI-H522 lung
[30] = test system: NCI/ADR-RES ovarian
[31] = test system: OVCAR-3 ovarian
[32] = test system: OVCAR-4 ovarian
[33] = test system: OVCAR-5 ovarian
[34] = test system: PC-3 prostate
[35] = test system: RPMI-8226 leukemia
[36] = test system: RXF 393 renal
[37] = test system: SF-268 CNS
[38] = test system: SF-295 CNS
[39] = test system: SF-539 CNS
[40] = test system: SK-MEL-2 melanoma
[41] = test system: SK-MEL-5 melanoma
[42] = test system: SK-OV-3 ovarian
[43] = test system: SN12C renal
[44] = test system: SNB-19 CNS
[45] = test system: SNB-75 CNS
[46] = test system: SR leukemia
[47] = test system: SW-620 colon
[48] = test system: T-47D breast
[49] = test system: TK-10 renal
[50] = test system: U251 CNS
[51] = test system: UACC-257 melanoma
[52] = test system: UACC-62 melanoma
[53] = test system: UO-31 renal
[54] = test system: ACHN renal
[55] = test system: BT-549 breast
[56] = test system: HCC-2998 colon
[57] = test system: HCT-15 colon
[58] = test system: OVCAR-8 ovarian
[59] = test system: SK-MEL-28 melanoma

SMILES: CC1=C(C)CC2(C=C(C(C)(C)C)C(=O)C(C(C)(C)C)=C2)SC1
- TGI [1]: 36 µM
- TGI [2]: 35.4 µM
- TGI [3]: 65.3 µM
- TGI [4]: 54.9 µM
- TGI [5]: 51 µM
- TGI [6]: 32.1 µM
- TGI [7]: > 100 µM
- TGI [8]: 36.9 µM
- TGI [9]: > 100 µM
- TGI [10]: 64.6 µM
- TGI [11]: 37.9 µM
- TGI [12]: 47.7 µM
- TGI [13]: 36.8 µM
- TGI [14]: 43 µM
- TGI [15]: 29.4 µM
- TGI [16]: > 100 µM
- TGI [17]: 55 µM
- TGI [18]: 33.1 µM
- TGI [19]: 99.4 µM
- TGI [20]: 33.4 µM
- TGI [21]: 36.6 µM
- TGI [22]: 29.2 µM
- TGI [23]: 43.6 µM
- TGI [24]: 90.3 µM
- TGI [25]: > 100 µM
- TGI [26]: 34.4 µM
- TGI [27]: 57.1 µM
- TGI [28]: > 100 µM
- TGI [29]: 16.5 µM
- TGI [30]: 39.4 µM
- TGI [31]: 36.1 µM
- TGI [32]: > 100 µM
- TGI [33]: 35.7 µM
- TGI [34]: 73.8 µM
- TGI [35]: 33.8 µM
- TGI [36]: 38.7 µM
- TGI [37]: 46.6 µM
- TGI [38]: 31.4 µM
- TGI [39]: 38 µM
- TGI [40]: 26 µM
- TGI [41]: 27.4 µM
- TGI [42]: 71 µM
- TGI [43]: 33.2 µM
- TGI [44]: 31.5 µM
- TGI [45]: 34.2 µM
- TGI [46]: > 100 µM
- TGI [47]: 41.1 µM
- TGI [48]: 87.3 µM
- TGI [49]: 37.9 µM
- TGI [50]: 29.9 µM
- TGI [51]: > 100 µM
- TGI [52]: 95.6 µM
- TGI [53]: 29.7 µM

SMILES: CC1(C)OC2OC(C(COS(=O)(=O)C(F)(F)F)N=[N+]=[N-])C(OC(=O)c3ccccc3)C2O1 (centres undefined)
- TGI [1]: > 100 µM
- TGI [2]: > 100 µM
- TGI [3]: > 100 µM
- TGI [54]: > 100 µM
- TGI [55]: > 100 µM
- TGI [4]: > 100 µM
- TGI [5]: > 100 µM
- TGI [6]: > 100 µM
- TGI [7]: > 100 µM
- TGI [8]: > 100 µM
- TGI [56]: > 100 µM
- TGI [9]: > 100 µM
- TGI [57]: > 100 µM
- TGI [10]: > 100 µM
- TGI [11]: > 100 µM
- TGI [12]: > 100 µM
- TGI [13]: > 100 µM
- TGI [14]: > 100 µM
- TGI [16]: > 100 µM
- TGI [17]: > 100 µM
- TGI [18]: > 100 µM
- TGI [19]: > 100 µM
- TGI [20]: > 100 µM
- TGI [21]: > 100 µM
- TGI [22]: > 100 µM
- TGI [23]: > 100 µM
- TGI [24]: > 100 µM
- TGI [25]: > 100 µM
- TGI [26]: > 100 µM
- TGI [27]: > 100 µM
- TGI [28]: > 100 µM
- TGI [30]: > 100 µM
- TGI [31]: > 100 µM
- TGI [32]: > 100 µM
- TGI [33]: > 100 µM
- TGI [58]: > 100 µM
- TGI [34]: > 100 µM
- GI50 [35]: > 100 µM and 26.7 µM
- TGI [35]: > 100 µM
- TGI [36]: > 100 µM
- TGI [37]: > 100 µM
- TGI [38]: > 100 µM
- TGI [39]: > 100 µM
- TGI [40]: > 100 µM
- TGI [59]: > 100 µM
- TGI [41]: > 100 µM
- TGI [42]: > 100 µM
- TGI [43]: > 100 µM
- TGI [44]: > 100 µM
- TGI [45]: > 100 µM
- TGI [47]: > 100 µM
- TGI [49]: > 100 µM
- TGI [50]: > 100 µM
- TGI [51]: > 100 µM
- TGI [52]: > 100 µM
- TGI [53]: > 100 µM
